Source: PubChem BioAssay (NCI)
Values joined by “and” are separate entries in the source; they are usually repeats but may differ in a detail not shown here. Identical values can stand only once.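 These data come from cells grown in 96-well plates and exposed to compound for 48 hours at five concentrations. GI50 marks 50% less growth. TGI denotes the concentration required for complete inhibition of growth.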

Legend:
Assay in all cases: NCI-60 cell line screen, 48 h
[1] = test system: HT29 colon
[2] = test system: HOP-62 NSCLC
[3] = test system: SK-MEL-28 melanoma
[4] = test system: NCI-H226 lung
[5] = test system: HCT-116 colon
[6] = test system: EKVX NSCLC
[7] = test system: MALME-3M melanoma
[8] = test system: OVCAR-4 ovarian
[9] = test system: M19-MEL melanoma
[10] = test system: LXFL 529 NSCLC

| Compound | GI50 [1] | TGI [1] | GI50 [2] | TGI [2] | GI50 [3] | TGI [3] | GI50 [4] | TGI [4] | GI50 [5] | TGI [5] | GI50 [6] | TGI [6] | GI50 [7] | TGI [7] | GI50 [8] | TGI [8] | TGI [9] [µM] | GI50 [10] [µM] | TGI [10] [µM] |
| --- | --- | --- | --- | --- | --- | --- | --- | --- | --- | --- | --- | --- | --- | --- | --- | --- | --- | --- | --- |
| CS(=O)(=O)c1ccc(-c2cnc(N)c(C(=O)Nc3ccccc3)n2)cc1 | 7.5 µM | > 100 µM | 18.8 µM | > 100 µM | 98.6 µM | > 100 µM | > 100 µM | > 100 µM | 11.4 µM | > 100 µM | > 92.3 µM | > 100 µM | > 100 µM | > 100 µM | 9.86 µM | > 100 µM | – | – | – |
| COCC1N=C(c2cc(OC)c(OC)c(OC)c2-c2cc3c(cc2C2OCCCO2)OCO3)O[C@H]1c1ccccc1 (some centres undefined) | – | > 100 µM | – | > 100 µM | – | > 100 µM | – | > 100 µM | – | > 100 µM | – | > 100 µM | – | > 100 µM | – | > 100 µM | > 100 | – | – |
| COc1ccc2c(c1)c(-c1nc(-c3c[nH]c4ncccc34)cs1)cn2CCCCN1CCOCC1 | 2.18 µM | 3.94 µM | 1.91 µM | 4.08 µM | 1.85 µM | 3.4 µM | 2.46 µM | 9.91 µM | 1.78 µM | 3.37 µM | 2.66 µM | 9.69 µM | 1.55 µM | 3.34 µM | 2.21 µM | 5.53 µM | – | – | – |
| COC(C(=O)C(O)C(C)O)C1Cc2cc3cc(OC4CC(OC(C)=O)C(OC5CC(O)C(OC)C(C)O5)C(C)O4)cc(O)c3c(O)c2C(=O)C1OC1CC(OC2CC(OC3CC(C)(O)C(OC(=O)C(C)C)C(C)O3)C(O)C(C)O2)C(O)C(C)O1 (centres undefined) | – | 0.991 µM and 3.48 µM and 2.1 µM | 0.0795 µM and 0.0102 µM and 0.00856 µM | – | 0.000911 µM and 0.00146 µM | – | – | 0.148 µM and 0.0893 µM | – | – | 0.0723 µM | – | – | – | – | – | – | 0.0174 | 0.124 |
| O=C1/C(=C/c2ccccc2F)CNC/C1=C\c1ccccc1F | 0.261 µM and 0.242 µM | 1.17 µM and 0.543 µM | 0.53 µM and 0.33 µM | 2.65 µM and 1.01 µM | 2.02 µM and 1.79 µM | 4.7 µM and 3.63 µM | 3.15 µM and 1.46 µM | 10.7 µM and 3.91 µM | 0.224 µM and 0.177 µM | 0.549 µM and 0.341 µM | 0.775 µM and 1.9 µM | 2.58 µM and 5.26 µM | 2.26 µM and 1.83 µM | 6.38 µM and 4.51 µM | 0.596 µM and 0.385 µM | 2.98 µM and 1.81 µM | – | – | – |
| C=CCNCCCN1C(=O)c2ccc3c4c(ccc(c24)C1=O)C(=O)N(CCCNCC=C)C3=O | 0.157 µM | 0.499 µM | 0.372 µM | 1.72 µM | 1.06 µM | 2.6 µM | 0.292 µM | 0.987 µM | 0.279 µM | 3.39 µM | 0.295 µM | 1.09 µM | 0.258 µM | 0.617 µM | 0.143 µM | 0.307 µM | – | – | – |
| CN(c1ccc(NC(=O)Nc2ccc(OC(F)(F)F)cc2)cc1)c1ccnc(Nc2cccc(S(N)(=O)=O)c2)n1 | 1.35 µM | 5.95 µM | 3.71 µM | 8.1 µM | 3.42 µM | 7 µM | 3.28 µM | 9.51 µM | 1.73 µM | 5.7 µM | 5.33 µM | 12.4 µM | 3.84 µM | 8.34 µM | 3.06 µM | 8.03 µM | – | – | – |
| O=Cc1cn(Cc2cccc(Cl)c2)c2ccccc12 | 13 µM | 32.3 µM | 2.57 µM | 19.5 µM | 15.9 µM | 31.1 µM | – | 0.0499 µM | 2.39 µM | 16 µM | 9.9 µM | 25 µM | 13.5 µM | 33.8 µM | 2.88 µM | 18.3 µM | – | – | – |
| CN1CCN(c2nc(NCCCCNc3ccnc4cc(Cl)ccc34)c3ccccc3n2)CC1 | 2 µM | 5.49 µM | 5.15 µM | 20.2 µM | 1.85 µM | 3.57 µM | 20.7 µM | 45.8 µM | 2.58 µM | 11.7 µM | 16.4 µM | 40.7 µM | 1.93 µM | 3.61 µM | 2.14 µM | 6.99 µM | – | – | – |
| Cn1ccnc1C(=O)/C=C/c1ccc(CC(=O)Nc2ccc(S(F)(F)(F)(F)F)cc2)cc1 | 3.25 µM | 7.2 µM | 2.58 µM | 6.18 µM | 2.83 µM | 5.88 µM | 2.93 µM | 7.02 µM | 0.823 µM | 2.87 µM | 2.84 µM | 8.23 µM | 2.95 µM | 6.65 µM | 2.35 µM | 9.07 µM | – | – | – |
| C/C(=C\c1ccn(-c2ccc(N)c(F)c2)n1)[C@@H]1C[C@@H]2O[C@]2(C)CCC[C@H](C)[C@H](O)[C@@H](C)C(=O)C(C)(C)[C@@H](O)CC(=O)O1 | 0.00756 µM | > 15.9 µM | 0.0245 µM | > 50 µM | 7.03 µM | > 50 µM | 7.99 µM | > 50 µM | 0.00796 µM | > 50 µM | 0.171 µM | > 50 µM | 0.0217 µM | > 50 µM | 0.0964 µM | > 50 µM | – | – | – |
